Assay results: ChEMBL document CHEMBL3046559, “Sterile oat (Avena sterilis L.) cross-resistance profile to ACCase-inhibiting herbicides in Greece” (2012)

Tests used:
Format in all cases: functional
Avena sterilis [1] = assay: Herbicidal activity against Avena sterilis accession P03 assessed as weed survival at 32 times field recommended herbicide dose
Avena sterilis [2] = assay: Herbicidal activity against Avena sterilis accession P17 assessed as weed survival at 32 times field recommended herbicide dose
Avena sterilis [3] = assay: Herbicidal activity against Avena sterilis accession P21S assessed as weed survival at 1/4 times field recommended herbicide dose
Avena sterilis [4] = assay: Herbicidal activity against Avena sterilis accession P03 assessed as weed survival at 1 times field recommended herbicide dose
Avena sterilis [5] = assay: Herbicidal activity against Avena sterilis accession P11 assessed as weed survival at 8 times field recommended herbicide dose
Avena sterilis [6] = assay: Herbicidal activity against Avena sterilis accession P15 assessed as weed survival at 4 times field recommended herbicide dose
Avena sterilis [7] = assay: Herbicidal activity against Avena sterilis accession P02 assessed as weed survival at 32 times field recommended herbicide dose
Avena sterilis [8] = assay: Herbicidal activity against Avena sterilis accession P21S assessed as weed survival at 1/8 times field recommended herbicide dose
Avena sterilis [9] = assay: Herbicidal activity against Avena sterilis accession P15 assessed as weed survival at 16 times field recommended herbicide dose
Avena sterilis [10] = assay: Herbicidal activity against Avena sterilis accession P06S assessed as weed survival at 1/8 times field recommended herbicide dose
Avena sterilis [11] = assay: Herbicidal activity against Avena sterilis accession P07 assessed as weed survival at 4 times field recommended herbicide dose
Avena sterilis [12] = assay: Herbicidal activity against Avena sterilis accession P15 assessed as weed survival at 1 times field recommended herbicide dose
Avena sterilis [13] = assay: Herbicidal activity against Avena sterilis accession P09 assessed as weed survival at 16 times field recommended herbicide dose
Avena sterilis [14] = assay: Herbicidal activity against Avena sterilis accession P12 assessed as induction of weed mortality
Avena sterilis [15] = assay: Herbicidal activity against Avena sterilis accession P20 assessed as induction of weed mortality
Avena sterilis [16] = assay: Herbicidal activity against Avena sterilis accession P18 assessed as weed survival at 16 times field recommended herbicide dose
Avena sterilis [17] = assay: Herbicidal activity against Avena sterilis accession P09 assessed as weed survival at 1 times field recommended herbicide dose
Avena sterilis [18] = assay: Herbicidal activity against Avena sterilis accession P21S assessed as weed survival at 1 times field recommended herbicide dose
Avena sterilis [19] = assay: Herbicidal activity against Avena sterilis accession P18 assessed as induction of weed mortality
Avena sterilis [20] = assay: Herbicidal activity against Avena sterilis accession P09 assessed as weed survival at 32 times field recommended herbicide dose
Avena sterilis [21] = assay: Herbicidal activity against Avena sterilis accession P12 assessed as weed survival at 16 times field recommended herbicide dose
Avena sterilis [22] = assay: Herbicidal activity against Avena sterilis accession P08 assessed as weed survival at 16 times field recommended herbicide dose
Avena sterilis [23] = assay: Herbicidal activity against Avena sterilis accession P07 assessed as induction of weed mortality
Avena sterilis [24] = assay: Herbicidal activity against Avena sterilis accession P09 assessed as weed survival at 8 times field recommended herbicide dose
Avena sterilis [25] = assay: Herbicidal activity against Avena sterilis accession P02 assessed as weed survival at 8 times field recommended herbicide dose
Avena sterilis [26] = assay: Herbicidal activity against Avena sterilis accession P13S assessed as weed survival at 1/16 times field recommended herbicide dose
Avena sterilis [27] = assay: Herbicidal activity against Avena sterilis accession P07 assessed as weed survival at 16 times field recommended herbicide dose
Avena sterilis [28] = assay: Herbicidal activity against Avena sterilis accession P11 assessed as weed survival at 32 times field recommended herbicide dose
Avena sterilis [29] = assay: Herbicidal activity against Avena sterilis accession P10S assessed as weed survival at 1 times field recommended herbicide dose
Avena sterilis [30] = assay: Herbicidal activity against Avena sterilis accession P01 assessed as weed survival at 8 times field recommended herbicide dose
Avena sterilis [31] = assay: Herbicidal activity against Avena sterilis accession P12 assessed as weed survival at 1 times field recommended herbicide dose
Avena sterilis [32] = assay: Herbicidal activity against Avena sterilis accession P05 assessed as weed survival at 8 times field recommended herbicide dose
Avena sterilis [33] = assay: Herbicidal activity against Avena sterilis accession P20 assessed as weed survival at 32 times field recommended herbicide dose
Avena sterilis [34] = assay: Herbicidal activity against Avena sterilis accession P22 assessed as weed survival at 4 times field recommended herbicide dose
Avena sterilis [35] = assay: Herbicidal activity against Avena sterilis accession P13S assessed as weed survival at 1 times field recommended herbicide dose
Avena sterilis [36] = assay: Herbicidal activity against Avena sterilis accession P18 assessed as weed survival at 8 times field recommended herbicide dose
Avena sterilis [37] = assay: Herbicidal activity against Avena sterilis accession P02 assessed as weed survival at 4 times field recommended herbicide dose
Avena sterilis [38] = assay: Herbicidal activity against Avena sterilis accession P08 assessed as weed survival at 1 times field recommended herbicide dose
Avena sterilis [39] = assay: Herbicidal activity against Avena sterilis accession P03 assessed as weed survival at 16 times field recommended herbicide dose
Avena sterilis [40] = assay: Herbicidal activity against Avena sterilis accession P04 assessed as induction of weed mortality
Avena sterilis [41] = assay: Herbicidal activity against Avena sterilis accession P17 assessed as weed survival at 4 times field recommended herbicide dose
Avena sterilis [42] = assay: Herbicidal activity against Avena sterilis accession P13S assessed as induction of weed mortality
Avena sterilis [43] = assay: Herbicidal activity against Avena sterilis accession P15 assessed as induction of weed mortality
Avena sterilis [44] = assay: Herbicidal activity against Avena sterilis accession P06S assessed as weed survival at 1 times field recommended herbicide dose
Avena sterilis [45] = assay: Herbicidal activity against Avena sterilis accession P20 assessed as weed survival at 1 times field recommended herbicide dose
Avena sterilis [46] = assay: Herbicidal activity against Avena sterilis accession P17 assessed as weed survival at 1 times field recommended herbicide dose
Avena sterilis [47] = assay: Herbicidal activity against Avena sterilis accession P18 assessed as weed survival at 32 times field recommended herbicide dose
Avena sterilis [48] = assay: Herbicidal activity against Avena sterilis accession P05 assessed as induction of weed mortality
Avena sterilis [49] = assay: Herbicidal activity against Avena sterilis accession P11 assessed as induction of weed mortality
Avena sterilis [50] = assay: Herbicidal activity against Avena sterilis accession P21S assessed as weed survival at 1/16 times field recommended herbicide dose
Avena sterilis [51] = assay: Herbicidal activity against Avena sterilis accession P10S assessed as weed survival at 1/8 times field recommended herbicide dose
Avena sterilis [52] = assay: Herbicidal activity against Avena sterilis accession P03 assessed as induction of weed mortality
Avena sterilis [53] = assay: Herbicidal activity against Avena sterilis accession P11 assessed as weed survival at 4 times field recommended herbicide dose
Avena sterilis [54] = assay: Herbicidal activity against Avena sterilis accession P04 assessed as weed survival at 4 times field recommended herbicide dose
Avena sterilis [55] = assay: Herbicidal activity against Avena sterilis accession P05 assessed as weed survival at 32 times field recommended herbicide dose
Avena sterilis [56] = assay: Herbicidal activity against Avena sterilis accession P02 assessed as weed survival at 16 times field recommended herbicide dose
Avena sterilis [57] = assay: Herbicidal activity against Avena sterilis accession P17 assessed as induction of weed mortality
Avena sterilis [58] = assay: Herbicidal activity against Avena sterilis accession P14 assessed as weed survival at 32 times field recommended herbicide dose

COCc1cnc(C2=NC(C)(C(C)C)C(=O)N2)c(C(=O)O)c1 (stereo not drawn) [IMAZAMOX]
Survival (Avena sterilis [1]): 0% | Survival (Avena sterilis [2]): 0% | Survival (Avena sterilis [3]): 60% | Survival (Avena sterilis [4]): 0% | Survival (Avena sterilis [5]): 0% | Survival (Avena sterilis [6]): 0% | Survival (Avena sterilis [7]): 0% | Survival (Avena sterilis [8]): 87% | Survival (Avena sterilis [9]): 0% | Survival (Avena sterilis [10]): 57% | Survival (Avena sterilis [11]): 0% | Survival (Avena sterilis [12]): 0% | Survival (Avena sterilis [13]): 0% | GR50 (Avena sterilis [14]): <50 gAi/ha | GR50 (Avena sterilis [15]): <50 gAi/ha | Survival (Avena sterilis [16]): 0% | Survival (Avena sterilis [17]): 0% | Survival (Avena sterilis [18]): 0% | GR50 (Avena sterilis [19]): <50 gAi/ha | Survival (Avena sterilis [20]): 0% | Survival (Avena sterilis [21]): 0% | Survival (Avena sterilis [22]): 0% | GR50 (Avena sterilis [23]): <50 gAi/ha | Survival (Avena sterilis [24]): 0% | Survival (Avena sterilis [25]): 0% | Survival (Avena sterilis [26]): 80% | Survival (Avena sterilis [27]): 0% | Survival (Avena sterilis [28]): 0% | Survival (Avena sterilis [29]): 0% | Survival (Avena sterilis [30]): 0% | Survival (Avena sterilis [31]): 0% | Survival (Avena sterilis [32]): 0% | Survival (Avena sterilis [33]): 0% | Survival (Avena sterilis [34]): 0% | Survival (Avena sterilis [35]): 0% | Survival (Avena sterilis [36]): 0% | Survival (Avena sterilis [37]): 0% | Survival (Avena sterilis [38]): 3% | Survival (Avena sterilis [39]): 0% | GR50 (Avena sterilis [40]): <50 gAi/ha | Survival (Avena sterilis [41]): 0% | GR50 (Avena sterilis [42]): 8 gAi/ha | GR50 (Avena sterilis [43]): <50 gAi/ha | Survival (Avena sterilis [44]): 0% | Survival (Avena sterilis [45]): 0% | Survival (Avena sterilis [46]): 3% | Survival (Avena sterilis [47]): 0% | GR50 (Avena sterilis [48]): <50 gAi/ha | GR50 (Avena sterilis [49]): <50 gAi/ha | Survival (Avena sterilis [50]): 97% | Survival (Avena sterilis [51]): 60% | GR50 (Avena sterilis [52]): <50 gAi/ha | Survival (Avena sterilis [53]): 0% | Survival (Avena sterilis [54]): 0% | Survival (Avena sterilis [55]): 0% | Survival (Avena sterilis [56]): 0% | GR50 (Avena sterilis [57]): <50 gAi/ha | Survival (Avena sterilis [58]): 0%
